According to ChEMBL document CHEMBL3734724, “Anticancer efficacy of unique pyridine-based tetraindoles” (Eur J Med Chem, 2015):
The source made the active and inactive calls. The calls are words filed in the database; no cut-off is given here.

Legend:
MDA-MB-231 [1] = assay: Antitumor activity against luciferase-expressing human MDA-MB-231 cells xenografted in ip dosed nude mouse assessed as tumor growth inhibition administered every other day measured on day 54; format: functional, organism-based
MDA-MB-231 [2] = assay: Induction of DNA damage in human MDA-MB-231 cells after 48 hrs by alkaline comet assay; format: functional, cell-based
MDA-MB-231 [3] = assay: Cell cycle arrest in human MDA-MB-231 cells assessed as accumulation at sub-G1 phase at 0.4 uM after 24 hrs by propidium iodide staining-based flow cytometric analysis relative to control; format: functional
MDA-MB-231 [4] = assay: Cell cycle arrest in human MDA-MB-231 cells assessed as accumulation at G2/M phase at 0.4 uM after 24 hrs by propidium iodide staining-based flow cytometric analysis (reference value: 12 +/- 2%); format: functional
MDA-MB-231 [5] = assay: Cell cycle arrest in human MDA-MB-231 cells assessed as accumulation at G2/M phase at 1.6 uM after 48 hrs by propidium iodide staining-based flow cytometric analysis (reference value: 16 +/- 3%); format: functional
MDA-MB-231 [6] = assay: Cell cycle arrest in human MDA-MB-231 cells assessed as accumulation at G0/G1 phase at 0.4 uM after 48 hrs by propidium iodide staining-based flow cytometric analysis (reference value: 57.8 +/- 0.7%); format: functional
MDA-MB-231 [7] = assay: Antimetastatic activity against luciferase-expressing human MDA-MB-231 cells xenografted in ip dosed nude mouse assessed as reduction of lung metastasis administered every other day measured on day 54; format: functional, organism-based
MDA-MB-231 [8] = assay: Induction of apoptosis in human MDA-MB-231 cells assessed as DNA ladder formation at 0.2 to 3.2 uM after 48 hrs; format: functional, cell-based
MDA-MB-231 [9] = assay: Cell cycle arrest in human MDA-MB-231 cells assessed as accumulation at G0/G1 phase at 0.8 uM after 24 hrs by propidium iodide staining-based flow cytometric analysis (reference value: 57 +/- 6%); format: functional
[10] = Ratio of compound IC50 to SK228 IC50 for human M10 cells; format: ADME, cell-based; details: read-out: Ratio IC50
MDA-MB-231 [11] = assay: Upregulation of Bax protein expression in human MDA-MB-231 cells after 48 hrs by Western blot analysis; format: functional, cell-based
MDA-MB-231 [12] = assay: Upregulation of phosphorylated chk2 protein expression in human MDA-MB-231 cells after 48 hrs by Western blot analysis; format: functional, cell-based
MDA-MB-231 [13] = assay: Reduction of phospho-cdc2 (Tyr15) dephosphorylation in human MDA-MB-231 cells after 48 hrs by Western blot analysis; format: functional, cell-based
MDA-MB-231 [14] = assay: Cell cycle arrest in human MDA-MB-231 cells assessed as accumulation at sub-G1 phase at 0.4 uM after 48 hrs by propidium iodide staining-based flow cytometric analysis relative to control; format: functional
MDA-MB-231 [15] = assay: Cell cycle arrest in human MDA-MB-231 cells assessed as accumulation at sub-G1 phase at 0.8 uM after 24 hrs by propidium iodide staining-based flow cytometric analysis relative to control; format: functional
MDA-MB-231 [16] = assay: Cell cycle arrest in human MDA-MB-231 cells assessed as accumulation at S phase at 0.4 uM after 48 hrs by propidium iodide staining-based flow cytometric analysis (reference value: 26 +/- 3%); format: functional
MDA-MB-231 [17] = assay: Cell cycle arrest in human MDA-MB-231 cells assessed as accumulation at S phase at 0.8 uM after 24 hrs by propidium iodide staining-based flow cytometric analysis (reference value: 32 +/- 4%); format: functional
MDA-MB-231 [18] = assay: Downregulation of cyclin A protein expression in human MDA-MB-231 cells at 0.4 to 3.2 uM after 48 hrs by Western blot analysis relative to control; format: functional, cell-based
MDA-MB-231 [19] = assay: Cell cycle arrest in human MDA-MB-231 cells assessed as accumulation at G2/M phase at 0.8 uM after 24 hrs by propidium iodide staining-based flow cytometric analysis (reference value: 12 +/- 2%); format: functional
MDA-MB-231 [20] = assay: Induction of apoptosis in human MDA-MB-231 cells assessed as DNA ladder formation at 0.4 to 3.2 uM after 24 hrs; format: functional, cell-based
Mus musculus = assay: Toxicity in nude mouse xenografted with luciferase-expressing human MDA-MB-231 cells assessed as change in body weight at 10 to 25 mg/kg, ip administered every other day measured weekly up to day 54 relative to vehicle-treated control; format: organism-based; details: in vivo
MDA-MB-231 [21] = assay: Cell cycle arrest in human MDA-MB-231 cells assessed as accumulation at G2/M phase after 48 hrs by propidium iodide staining-based flow cytometric analysis; format: functional
MDA-MB-231 [22] = assay: Cell cycle arrest in human MDA-MB-231 cells assessed as accumulation at G2/M phase at 1.6 uM after 24 hrs by propidium iodide staining-based flow cytometric analysis (reference value: 12 +/- 2%); format: functional
MDA-MB-231 [23] = assay: Antitumor activity against luciferase-expressing human MDA-MB-231 cells xenografted in nude mouse assessed as tumor growth inhibition at 10 mg/kg, ip administered every other day measured on day 54 relative to vehicle-treated control; format: functional; details: MDA-MB-231, ip, 1296 h, read-out: TGI
MDA-MB-231 [24] = assay: Cell cycle arrest in human MDA-MB-231 cells assessed as accumulation at S phase at 0.8 uM after 48 hrs by propidium iodide staining-based flow cytometric analysis (reference value: 26 +/- 3%); format: functional
MDA-MB-231 [25] = assay: Cell cycle arrest in human MDA-MB-231 cells assessed as accumulation at G0/G1 phase at 1.6 uM after 48 hrs by propidium iodide staining-based flow cytometric analysis (reference value: 57.8 +/- 0.7%); format: functional
MDA-MB-231 [26] = assay: Cytotoxicity against human MDA-MB-231 cells assessed as growth inhibition after 48 hrs by MTT assay; format: functional, cell-based; details: MDA-MB-231, 48 h
[27] = Cytotoxicity against human BT549 cells assessed as growth inhibition after 48 hrs by MTT assay; format: functional, cell-based; details: BT-549, 48 h
MDA-MB-231 [28] = assay: Cell cycle arrest in human MDA-MB-231 cells assessed as accumulation at sub-G1 phase at 0.8 uM after 48 hrs by propidium iodide staining-based flow cytometric analysis relative to control; format: functional
MDA-MB-231 [29] = assay: Induction of DNA damage in human MDA-MB-231 cells at 3.2 uM after 48 hrs by alkaline comet assay relative to control; format: functional
MDA-MB-231 [30] = assay: Cell cycle arrest in human MDA-MB-231 cells assessed as accumulation at sub-G1 phase at 1.6 uM after 48 hrs by propidium iodide staining-based flow cytometric analysis relative to control; format: functional
[31] = Cytotoxicity against human M10 cells assessed as growth inhibition after 48 hrs by MTT assay; format: cell-based; details: M10, 48 h
[32] = Cytotoxicity against human M10 cells assessed as growth inhibition at 20 uM after 48 hrs by MTT assay relative to control; format: cell-based; details: read-out: GI
MDA-MB-231 [33] = assay: Cell cycle arrest in human MDA-MB-231 cells assessed as accumulation at sub-G1 phase at 1.6 uM after 24 hrs by propidium iodide staining-based flow cytometric analysis relative to control; format: functional
MDA-MB-231 [34] = assay: Antitumor activity against luciferase-expressing human MDA-MB-231 cells xenografted in nude mouse assessed as tumor growth inhibition at 25 mg/kg, ip administered every other day measured on day 54 relative to vehicle-treated control; format: functional; details: MDA-MB-231, ip, 1296 h, read-out: TGI
MDA-MB-231 [35] = assay: Downregulation of Bcl-xL protein expression in human MDA-MB-231 cells after 48 hrs by Western blot analysis; format: functional, cell-based

Structure (SMILES): Oc1ccc2[nH]cc(C(c3ccc(C(c4c[nH]c5ccc(O)cc45)c4c[nH]c5ccc(O)cc45)nc3)c3c[nH]c4ccc(O)cc34)c2c1
- TGI (MDA-MB-231 [1]): Dose-dependent effect
- Activity (MDA-MB-231 [2]): Dose-dependent effect
- Activity (MDA-MB-231 [3]): 0.1%
- Activity (MDA-MB-231 [4]): 13.2%
- Activity (MDA-MB-231 [5]): 24%
- Activity (MDA-MB-231 [6]): 54%
- Activity (MDA-MB-231 [7]): Dose-dependent effect
- Activity (MDA-MB-231 [8]): Active
- Activity (MDA-MB-231 [9]): 54%
- selectivity ratio [10]: 4
- Activity (MDA-MB-231 [11]): Dose-dependent effect
- Activity (MDA-MB-231 [12]): Dose-dependent effect
- Activity (MDA-MB-231 [13]): Dose-dependent effect
- Activity (MDA-MB-231 [14]): 1.3%
- Activity (MDA-MB-231 [15]): 1.5%
- Activity (MDA-MB-231 [16]): 28%
- Activity (MDA-MB-231 [17]): 31%
- Activity (MDA-MB-231 [18]): Active
- Activity (MDA-MB-231 [19]): 14.7%
- Activity (MDA-MB-231 [20]): inactive
- Activity (Mus musculus): Non-toxic
- Activity (MDA-MB-231 [21]): Dose-dependent effect
- Activity (MDA-MB-231 [22]): 20%
- inhibition in vivo at 10 mg/kg (MDA-MB-231 [23]): 58%
- Activity (MDA-MB-231 [24]): 29%
- Activity (MDA-MB-231 [25]): 45%
- IC50 (MDA-MB-231 [26]): 0.8 µM
- IC50 [27]: 4 µM
- Activity (MDA-MB-231 [28]): 12%
- fold change (FC) (MDA-MB-231 [29]): 12
- Activity (MDA-MB-231 [30]): 23%
- IC50 [31]: > 20 µM
- inhibition at 48 h, 20 µM [32]: 37%
- Activity (MDA-MB-231 [33]): 16%
- inhibition in vivo at 25 mg/kg (MDA-MB-231 [34]): 70%
- Activity (MDA-MB-231 [35]): Dose-dependent effect
